The target in assay [1] is Histone acetyltransferase KAT2B (Homo sapiens, UniProt Q92831). Briefly: Inhibition of PCAF (unknown origin) using N-terminal histone H3-20 peptide substrate incubated for 3.5 mins by liquid scintillation counting method in presence of [3H]acetyl-CoA.
In assay [2] the target is T1, Histone acetyltransferase p300 (Homo sapiens, UniProt Q09472). The experiment in a line: Inhibition of p300 (unknown origin) using N-terminal histone H4-20 peptide substrate incubated for 10 mins by liquid scintillation counting method in presence of [14C]acetyl-CoA.
T1 sequence (Q09472 whole entry): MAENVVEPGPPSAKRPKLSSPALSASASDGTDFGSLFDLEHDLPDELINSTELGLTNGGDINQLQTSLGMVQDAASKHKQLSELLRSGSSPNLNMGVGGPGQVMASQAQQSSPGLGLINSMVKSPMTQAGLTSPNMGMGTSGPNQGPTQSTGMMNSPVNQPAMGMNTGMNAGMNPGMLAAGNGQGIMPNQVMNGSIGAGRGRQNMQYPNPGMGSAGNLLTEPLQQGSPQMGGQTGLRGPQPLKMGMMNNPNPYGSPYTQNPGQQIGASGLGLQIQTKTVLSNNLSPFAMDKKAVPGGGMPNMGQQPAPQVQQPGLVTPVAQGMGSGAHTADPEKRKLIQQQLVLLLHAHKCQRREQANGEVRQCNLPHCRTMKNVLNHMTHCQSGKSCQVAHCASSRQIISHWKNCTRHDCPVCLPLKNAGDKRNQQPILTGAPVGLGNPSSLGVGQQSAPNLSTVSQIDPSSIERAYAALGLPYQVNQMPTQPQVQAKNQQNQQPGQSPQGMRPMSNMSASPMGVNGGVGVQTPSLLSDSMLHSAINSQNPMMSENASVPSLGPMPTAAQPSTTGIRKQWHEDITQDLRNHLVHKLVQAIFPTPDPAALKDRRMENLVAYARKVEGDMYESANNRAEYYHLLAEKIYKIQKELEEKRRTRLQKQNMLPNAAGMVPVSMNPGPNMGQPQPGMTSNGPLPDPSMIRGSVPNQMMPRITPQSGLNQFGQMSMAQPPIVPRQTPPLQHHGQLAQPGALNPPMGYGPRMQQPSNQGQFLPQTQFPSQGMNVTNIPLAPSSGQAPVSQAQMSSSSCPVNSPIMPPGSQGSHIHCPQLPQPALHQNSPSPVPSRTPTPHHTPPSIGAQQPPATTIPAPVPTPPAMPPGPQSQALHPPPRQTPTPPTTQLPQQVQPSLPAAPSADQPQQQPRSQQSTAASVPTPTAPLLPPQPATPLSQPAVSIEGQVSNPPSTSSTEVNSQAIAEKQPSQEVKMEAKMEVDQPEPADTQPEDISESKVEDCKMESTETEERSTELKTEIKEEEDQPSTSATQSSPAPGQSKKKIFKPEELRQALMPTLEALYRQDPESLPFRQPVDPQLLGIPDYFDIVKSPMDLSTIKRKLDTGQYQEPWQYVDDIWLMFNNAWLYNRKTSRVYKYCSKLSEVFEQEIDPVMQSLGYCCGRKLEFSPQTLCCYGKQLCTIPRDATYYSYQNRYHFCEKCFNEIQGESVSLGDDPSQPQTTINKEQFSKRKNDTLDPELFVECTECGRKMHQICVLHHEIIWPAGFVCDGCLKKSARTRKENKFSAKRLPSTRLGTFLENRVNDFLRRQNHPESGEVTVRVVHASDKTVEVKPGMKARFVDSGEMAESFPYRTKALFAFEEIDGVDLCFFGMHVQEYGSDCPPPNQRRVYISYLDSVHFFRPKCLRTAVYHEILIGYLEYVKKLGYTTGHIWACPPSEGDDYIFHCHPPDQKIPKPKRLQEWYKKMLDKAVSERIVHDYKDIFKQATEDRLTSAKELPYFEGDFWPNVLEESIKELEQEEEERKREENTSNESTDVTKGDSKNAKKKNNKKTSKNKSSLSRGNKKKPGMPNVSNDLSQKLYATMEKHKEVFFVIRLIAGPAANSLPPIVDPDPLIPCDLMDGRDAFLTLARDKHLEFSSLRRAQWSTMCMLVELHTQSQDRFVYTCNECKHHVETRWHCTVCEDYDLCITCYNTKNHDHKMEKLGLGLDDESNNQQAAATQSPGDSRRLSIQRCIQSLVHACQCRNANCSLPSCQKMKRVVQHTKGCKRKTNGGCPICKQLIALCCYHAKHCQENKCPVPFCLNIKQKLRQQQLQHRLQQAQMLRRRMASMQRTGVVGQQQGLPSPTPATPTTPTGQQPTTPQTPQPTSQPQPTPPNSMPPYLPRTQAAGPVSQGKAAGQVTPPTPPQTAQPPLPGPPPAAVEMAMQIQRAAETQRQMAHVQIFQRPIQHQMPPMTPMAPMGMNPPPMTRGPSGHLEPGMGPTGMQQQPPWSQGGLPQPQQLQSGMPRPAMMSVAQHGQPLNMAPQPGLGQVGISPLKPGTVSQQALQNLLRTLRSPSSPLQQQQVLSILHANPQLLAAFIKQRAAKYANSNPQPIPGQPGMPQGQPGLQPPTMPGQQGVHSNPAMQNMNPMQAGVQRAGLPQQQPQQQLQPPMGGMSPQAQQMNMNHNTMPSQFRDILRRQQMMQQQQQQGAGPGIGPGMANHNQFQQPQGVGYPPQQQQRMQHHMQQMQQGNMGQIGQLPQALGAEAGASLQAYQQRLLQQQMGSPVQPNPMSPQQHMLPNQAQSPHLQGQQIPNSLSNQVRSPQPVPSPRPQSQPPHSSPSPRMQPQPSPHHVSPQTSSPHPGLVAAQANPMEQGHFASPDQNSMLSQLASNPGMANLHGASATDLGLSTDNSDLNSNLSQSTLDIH
Assay [3] addresses T2, Histone acetyltransferase ESA1 (Saccharomyces cerevisiae (strain ATCC 204508 / S288c) (Baker's yeast), UniProt Q08649).
T2 sequence (Q08649 whole entry): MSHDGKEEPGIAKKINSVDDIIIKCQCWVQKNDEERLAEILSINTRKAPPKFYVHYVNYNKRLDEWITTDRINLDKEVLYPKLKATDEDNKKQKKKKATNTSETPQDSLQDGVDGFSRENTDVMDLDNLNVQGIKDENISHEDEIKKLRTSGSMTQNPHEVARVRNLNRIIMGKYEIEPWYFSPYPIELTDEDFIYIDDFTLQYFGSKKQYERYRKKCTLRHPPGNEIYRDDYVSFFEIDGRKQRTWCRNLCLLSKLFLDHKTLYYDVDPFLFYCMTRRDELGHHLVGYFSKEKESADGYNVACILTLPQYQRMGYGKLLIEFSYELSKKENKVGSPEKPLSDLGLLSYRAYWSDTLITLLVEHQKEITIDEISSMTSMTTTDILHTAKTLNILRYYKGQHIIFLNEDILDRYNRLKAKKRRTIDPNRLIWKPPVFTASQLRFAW
The experiment in a line: Inhibition of yeast ESA1 using N-terminal histone H3 substrate by radiometric filter binding based […] in presence of [3H]acetyl-CoA.

The target in assay [4] is Histone acetyltransferase KAT5 (Homo sapiens, UniProt Q92993). Briefly: Inhibition of full length TIP60 (unknown origin) expressed in Escherichia coli using N-terminal histone H4-20 peptide substrate incubated for 10 mins by liquid scintillation counting method in presence of [3H]acetyl-CoA.
Assay [5] has as its target T1, Histone acetyltransferase p300. Briefly: Inhibition of human p300 expressed in competent escherichia coli BL21(DE3)-R3-pRARE2 cells by isothermal titration calorimetry. On the technique in general: In ITC the heat of successive injections is recorded.
Another assay addresses CREB-binding protein (Homo sapiens, UniProt Q92793). The experiment in a line: Inhibition of human CREBBP expressed in competent escherichia coli BL21(DE3)-R3-pRARE2 cells by isothermal titration calorimetry.

SMILES strings stand for the structures. Bounds are passed on as bounds.

Sequence of CREB-binding protein (Q92793 whole entry): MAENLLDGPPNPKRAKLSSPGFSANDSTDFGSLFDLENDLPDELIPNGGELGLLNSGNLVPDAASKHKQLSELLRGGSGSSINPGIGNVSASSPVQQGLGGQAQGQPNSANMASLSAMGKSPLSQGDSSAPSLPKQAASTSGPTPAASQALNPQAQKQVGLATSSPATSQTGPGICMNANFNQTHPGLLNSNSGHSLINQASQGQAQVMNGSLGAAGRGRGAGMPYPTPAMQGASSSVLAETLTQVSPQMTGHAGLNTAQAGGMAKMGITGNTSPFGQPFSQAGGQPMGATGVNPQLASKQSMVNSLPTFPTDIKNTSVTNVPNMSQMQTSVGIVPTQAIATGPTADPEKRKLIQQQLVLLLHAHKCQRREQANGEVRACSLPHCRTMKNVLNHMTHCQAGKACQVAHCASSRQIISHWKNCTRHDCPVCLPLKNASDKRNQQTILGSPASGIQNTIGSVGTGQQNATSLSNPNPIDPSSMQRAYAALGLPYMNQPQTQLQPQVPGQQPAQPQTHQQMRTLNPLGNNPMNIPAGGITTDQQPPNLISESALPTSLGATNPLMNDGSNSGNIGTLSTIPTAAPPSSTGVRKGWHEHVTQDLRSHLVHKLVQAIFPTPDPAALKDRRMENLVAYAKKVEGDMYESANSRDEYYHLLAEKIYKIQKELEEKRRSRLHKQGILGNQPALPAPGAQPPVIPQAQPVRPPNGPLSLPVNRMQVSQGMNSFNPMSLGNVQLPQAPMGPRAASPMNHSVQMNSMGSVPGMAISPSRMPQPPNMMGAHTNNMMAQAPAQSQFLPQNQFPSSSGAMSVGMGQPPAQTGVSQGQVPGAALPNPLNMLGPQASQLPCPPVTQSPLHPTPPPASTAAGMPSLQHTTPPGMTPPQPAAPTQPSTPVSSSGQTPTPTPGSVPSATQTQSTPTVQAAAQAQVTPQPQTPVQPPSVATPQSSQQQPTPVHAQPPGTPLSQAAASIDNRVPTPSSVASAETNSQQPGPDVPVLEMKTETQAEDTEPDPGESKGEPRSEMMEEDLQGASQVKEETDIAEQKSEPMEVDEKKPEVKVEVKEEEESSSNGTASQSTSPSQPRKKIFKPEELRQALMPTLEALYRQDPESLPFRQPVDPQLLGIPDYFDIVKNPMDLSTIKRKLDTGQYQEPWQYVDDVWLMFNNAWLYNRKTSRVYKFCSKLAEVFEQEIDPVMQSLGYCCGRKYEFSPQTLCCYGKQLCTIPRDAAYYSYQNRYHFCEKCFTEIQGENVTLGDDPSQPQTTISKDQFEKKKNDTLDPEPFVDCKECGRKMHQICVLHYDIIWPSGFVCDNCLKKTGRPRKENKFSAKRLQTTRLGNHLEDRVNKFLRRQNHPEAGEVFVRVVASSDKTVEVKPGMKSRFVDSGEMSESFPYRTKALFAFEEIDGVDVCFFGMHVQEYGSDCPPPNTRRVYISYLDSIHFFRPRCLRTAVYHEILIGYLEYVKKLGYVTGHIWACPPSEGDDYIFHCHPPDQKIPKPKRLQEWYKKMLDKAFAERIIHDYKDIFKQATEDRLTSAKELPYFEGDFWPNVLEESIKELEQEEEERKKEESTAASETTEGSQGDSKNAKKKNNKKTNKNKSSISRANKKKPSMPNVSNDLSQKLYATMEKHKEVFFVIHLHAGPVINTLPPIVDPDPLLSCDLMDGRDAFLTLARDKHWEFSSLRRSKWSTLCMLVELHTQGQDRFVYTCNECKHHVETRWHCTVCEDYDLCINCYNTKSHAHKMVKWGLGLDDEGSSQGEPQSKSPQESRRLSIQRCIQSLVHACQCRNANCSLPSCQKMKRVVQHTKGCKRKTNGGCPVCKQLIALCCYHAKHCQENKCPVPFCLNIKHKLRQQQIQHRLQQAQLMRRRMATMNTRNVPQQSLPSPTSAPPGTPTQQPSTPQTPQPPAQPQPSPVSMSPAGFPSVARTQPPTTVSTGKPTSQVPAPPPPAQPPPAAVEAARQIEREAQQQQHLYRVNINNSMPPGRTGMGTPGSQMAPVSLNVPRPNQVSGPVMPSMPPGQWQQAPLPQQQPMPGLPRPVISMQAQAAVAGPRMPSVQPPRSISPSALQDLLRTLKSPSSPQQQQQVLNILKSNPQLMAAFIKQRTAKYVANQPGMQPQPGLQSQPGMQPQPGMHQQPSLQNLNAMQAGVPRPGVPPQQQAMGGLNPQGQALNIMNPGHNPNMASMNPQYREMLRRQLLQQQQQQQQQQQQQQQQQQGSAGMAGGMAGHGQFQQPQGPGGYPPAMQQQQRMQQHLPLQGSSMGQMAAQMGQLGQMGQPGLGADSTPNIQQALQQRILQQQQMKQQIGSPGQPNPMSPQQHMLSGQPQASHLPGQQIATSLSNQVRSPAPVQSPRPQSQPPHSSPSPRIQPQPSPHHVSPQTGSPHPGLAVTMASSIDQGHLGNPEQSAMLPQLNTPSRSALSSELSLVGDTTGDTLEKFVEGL

What is called IC50 is the concentration that gives 50% inhibition. With `COc1ccc(C2CC(c3cccs3)=NN2c2nc(-c3ccc(N4C(=O)c5ccccc5C4=O)cc3)cs2)cc1OC` (stereo unspecified), the 50% inhibitory concentration (IC50) was over 100 µM in assay [1], 150 µM in assay [2], 190 µM in assay [3] and 149 µM in assay [4].
In general, Kd refers to the constant that tells how readily two partners part at equilibrium. For the compound `CCC(=O)N1CCOc2c(cc(-c3ccc(OC)c(OC)c3)cc2OC[C@H]2CCCN(C)C2)C1`, the figures for the Kd (in assay [5]; at CREB-binding protein) were 0.167 µM and 0.151 µM, respectively.

The record behind these values is ChEMBL document CHEMBL3774308, “KATching-Up on Small Molecule Modulators of Lysine Acetyltransferases” (J Med Chem, 2016).
